Reference: ChEMBL document CHEMBL1135295, “Novel camptothecin derivatives. Part 1: oxyalkanoic acid esters of camptothecin and their in vitro and in vivo antitumor activity” (2002)

How the values were obtained:
NCI/ADR-RES = assay: Compound was tested in vitro for cytotoxicity against MCF-7ADR, human breast cancer cells (taxol-resistant) at a drug concentration producing 50% inhibition of colony formation; assay type: functional; conditions: read-out: ID50 (the source's name)
Mus musculus [1] = species on record: Mus musculus; assay: The tumor growth value was reported as ratio of surviving days of mice treated with anticancer drug to surviving days of control mice; assay type: functional
HCT-116 = assay: Compound was tested in vitro for cytotoxicity against HCT116, human colon cancer cells (taxol-sensitive) at a drug concentration producing 50% inhibition of colony formation; conditions: read-out: ID50 (the source's name)
Mus musculus [2] = assay: Compound was tested in vivo for antitumor activity, reported as non toxic dose (NTD) in mice injected intraperitoneally with drug
HCT-116/VM46 = assay: Compound was tested in vitro for cytotoxicity against VM46 subline of HCT116 (taxol-resistant) at a drug concentration producing 50% inhibition of colony formation; conditions: Homo sapiens, read-out: ID50 (the source's name)
PC-3 = assay: Compound was tested in vitro for cytotoxicity against PC-3, human prostate cancer cells (taxol-sensitive) at a drug concentration producing 50% inhibition of colony formation; assay type: functional; conditions: read-out: ID50 (the source's name)
Mus musculus [3] = assay: Compound was tested in vivo for antitumor activity, reported as maximum tolerated dose (MTD) in mice injected intraperitoneally with drug

SMILES | IC50 (NCI/ADR-RES) [nM] | T/C (Mus musculus [1]) [%] | IC50 (HCT-116) [nM] | NTD (Mus musculus [2]) [mg/kg] | IC50 (HCT-116/VM46) [nM] | IC50 (PC-3) [nM] | MTD (Mus musculus [3]) [mg/kg]
CC[C@@]1(OC(=O)CCCOc2ccc(Cl)cc2Cl)C(=O)OCc2c1cc1n(c2=O)Cc2cc3ccccc3nc2-1 | 89 | 250 | 39 | 100 | 27 |  | 
CC[C@@]1(OC(=O)CO[C@@H]2C[C@H](C)CC[C@H]2C(C)C)C(=O)OCc2c1cc1n(c2=O)Cc2cc3ccccc3nc2-1 | 7.2 | 200 | 3.6 | 100 | 2.5 | 6.2 | 
CC[C@@]1(OC(=O)COc2ccc(Br)cc2)C(=O)OCc2c1cc1n(c2=O)Cc2cc3ccccc3nc2-1 | 5.5 | 300 | 3 | 150 | 1.9 | 3.2 | 
CC[C@@]1(OC(=O)COc2ccc3ccccc3c2)C(=O)OCc2c1cc1n(c2=O)Cc2cc3ccccc3nc2-1 | 4.1 | 117 | 3 | 150 | 1.8 | 3.9 | 
CC[C@@]1(OC(=O)COc2ccc([N+](=O)[O-])cc2)C(=O)OCc2c1cc1n(c2=O)Cc2cc3ccccc3nc2-1 | 7 | 250 | 3.3 | 100 | 3 | 4.8 | 
CC[C@@]1(OC(=O)COc2ccc3c(C)c(Cl)c(=O)oc3c2)C(=O)OCc2c1cc1n(c2=O)Cc2cc3ccccc3nc2-1 | 5.2 | 200 | 3.5 | 75 | 0.7 | 3 | 
CC[C@@]1(OC(=O)COc2ccc(Cl)cc2C)C(=O)OCc2c1cc1n(c2=O)Cc2cc3ccccc3nc2-1 | 4.3 | 217 | 2.7 | 150 | 0.9 | 3.5 | 
CC[C@@]1(OC(=O)CCCCOc2ccc(F)cc2Br)C(=O)OCc2c1cc1n(c2=O)Cc2cc3ccccc3nc2-1 | > 100 |  | > 100 | 150 | 94 |  | 
CC[C@@]1(OC(=O)CCOc2ccccc2)C(=O)OCc2c1cc1n(c2=O)Cc2cc3ccccc3nc2-1 | 28 | 133 | 8 | 150 | 7 |  | 
CC[C@@]1(OC(=O)COc2ccc3c(c2)OCO3)C(=O)OCc2c1cc1n(c2=O)Cc2cc3ccccc3nc2-1 | 5 | 200 | 3.1 | 45 | 2.4 | 4.6 | 
CC[C@@]1(O)C(=O)OCc2c1cc1n(c2=O)Cc2cc3ccccc3nc2-1 [CAMPTOTHECIN] | 3.9 | 183 | 2.8 |  | 2.4 | 3.8 | 12
CCc1c2c(nc3ccc(OC(=O)N4CCC(N5CCCCC5)CC4)cc13)-c1cc3c(c(=O)n1C2)COC(=O)[C@]3(O)CC [IRINOTECAN] | > 500 | 217 | 540 |  | 220 |  | 200
CC(=O)O[C@H]1C(=O)[C@@]2(C)[C@H]([C@H](OC(=O)c3ccccc3)[C@]3(O)C[C@H](OC(=O)[C@H](O)[C@@H](NC(=O)c4ccccc4)c4ccccc4)C(C)=C1C3(C)C)[C@]1(OC(C)=O)CO[C@@H]1C[C@@H]2O [PACLITAXEL] | > 10000 | 150 |  |  | > 50 | 4 | 40.6
